Structures can show the parent of a compound that is named as a salt.
How the values were obtained:
RON (human) = RON (human) (Homo sapiens, UniProt Q04912); test: RON kinase AlphaScreen assay (Km of ATP); type: biochemical; settings: ATP at Km; at least duplicate experiments
Protocol: (§1) Person skilled in the art will appreciate that a variety of assay formats may be used to determine the activity of the compounds of this invention. For example, AlphaScreen (Amplified Luminescent Proximity Homogeneous Assay) technology was used with the kinases described below. Assay ATP concentrations for individual kinases are included in the text.
RON (human)—Km of ATP: RON assay is performed in a 384 well assay containing 200 ng/μL biotinylated poly(Glu,Tyr), 0.334 mM vanadate, desired concentration of ATP optimized for the enzyme in assay buffer (50 mM HEPES (pH=7.4), 12.5 mM MgCl2 and 1% glycerol). Desired compound is added in a final concentration of 1% DMSO with control being vehicle of DMSO alone. RON is diluted to the optimized (on a lot-by-lot basis) concentration in an enzyme diluent buffer (50 mM HEPES pH=7.4, 12.5 mM MgCl2 and 1% glycerol, 0.03% Brij35, 0.3 mM EGTA, lmM DTT, and 0.003% BSA). Enzyme is added to initiate the reaction and incubated for 30 min at RT. In subdued light, appropriate amount of PT66 donor and acceptor beads (diluted 1:260 from manufacturer's provision in a 25 mM Tris HCl (pH=7.5), 200 mM NaCl, 100 mM EDTA, 0.3% BSA buffer) are added to the wells. The plates, incubated for 1 h, are read on an AlphaQuest plate reader.

MET (human) = MET (human) (Homo sapiens, UniProt P08581); test: MET kinase AlphaScreen assay (Km of ATP); type: biochemical; settings: ATP at Km; at least duplicate experiments
Protocol: as §1
MET (human)—Km of ATP: MET assay is performed in a 384 well assay containing 200 ng/μL biotinylated poly(Glu,Tyr), 0.334 mM vanadate, desired concentration of ATP optimized for the enzyme in assay buffer (50 mM HEPES (pH=7.4), 5 mM MgCl2, 5 mM MnCl2, and 1% glycerol). Desired compound is added in a final concentration of 1% DMSO with control being vehicle of DMSO alone. MET is diluted to the optimized concentration (optimized on a lot-by-lot basis) in an enzyme diluent buffer (50 mM Tris pH=7.4, 1% glycerol, 0.03% Brij35, 0.24 mM EGTA, 1 mM DTT, and 0.003% BSA). Enzyme is added to initiate the reaction and incubated for 60 min at RT. In subdued light, appropriate amount of PT66 donor and acceptor beads (diluted 1:260 from manufacturer's provision in a 25 mM Tris HCl (pH=7.5), 400 mM NaCl, 100 mM EDTA, 0.3% BSA buffer) are added to the wells. The plates, incubated for 1 h, are read on an AlphaQuest plate reader

Sequence of MET (human) (P08581 25-1390): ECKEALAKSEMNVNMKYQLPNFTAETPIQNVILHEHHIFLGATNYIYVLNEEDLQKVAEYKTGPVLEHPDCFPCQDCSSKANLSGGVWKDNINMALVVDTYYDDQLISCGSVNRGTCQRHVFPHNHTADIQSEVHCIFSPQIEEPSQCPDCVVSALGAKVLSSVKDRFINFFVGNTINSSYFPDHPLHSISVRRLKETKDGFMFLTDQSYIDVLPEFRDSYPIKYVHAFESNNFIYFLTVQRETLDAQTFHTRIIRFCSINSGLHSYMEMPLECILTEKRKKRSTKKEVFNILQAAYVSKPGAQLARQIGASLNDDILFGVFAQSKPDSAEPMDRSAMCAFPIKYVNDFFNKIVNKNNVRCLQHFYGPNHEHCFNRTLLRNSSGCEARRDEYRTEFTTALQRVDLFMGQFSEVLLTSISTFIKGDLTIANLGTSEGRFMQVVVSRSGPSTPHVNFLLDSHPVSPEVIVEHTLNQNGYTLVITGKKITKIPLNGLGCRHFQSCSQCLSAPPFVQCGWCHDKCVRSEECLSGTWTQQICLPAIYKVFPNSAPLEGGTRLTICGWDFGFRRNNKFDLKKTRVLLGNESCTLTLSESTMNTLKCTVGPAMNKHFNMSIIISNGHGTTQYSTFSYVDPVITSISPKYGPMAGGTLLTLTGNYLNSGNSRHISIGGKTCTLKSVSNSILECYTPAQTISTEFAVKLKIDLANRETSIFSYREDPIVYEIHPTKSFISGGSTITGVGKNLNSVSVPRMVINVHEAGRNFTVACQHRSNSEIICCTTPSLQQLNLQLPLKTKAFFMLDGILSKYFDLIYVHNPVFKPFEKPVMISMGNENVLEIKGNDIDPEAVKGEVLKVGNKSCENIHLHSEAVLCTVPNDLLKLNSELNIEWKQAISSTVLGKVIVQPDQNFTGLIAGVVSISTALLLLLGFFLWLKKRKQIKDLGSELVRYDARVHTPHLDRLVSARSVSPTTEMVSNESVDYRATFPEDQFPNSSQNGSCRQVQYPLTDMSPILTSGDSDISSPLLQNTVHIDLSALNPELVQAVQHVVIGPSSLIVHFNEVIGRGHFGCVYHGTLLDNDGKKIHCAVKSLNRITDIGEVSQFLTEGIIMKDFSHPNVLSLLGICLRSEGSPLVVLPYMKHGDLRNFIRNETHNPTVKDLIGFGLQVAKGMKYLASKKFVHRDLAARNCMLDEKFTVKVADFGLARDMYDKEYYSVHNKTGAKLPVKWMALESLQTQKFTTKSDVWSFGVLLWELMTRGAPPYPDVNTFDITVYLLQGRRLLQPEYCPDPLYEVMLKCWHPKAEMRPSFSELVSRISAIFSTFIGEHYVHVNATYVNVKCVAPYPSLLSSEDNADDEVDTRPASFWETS
Sequence of RON (human) (Q04912 25-1400): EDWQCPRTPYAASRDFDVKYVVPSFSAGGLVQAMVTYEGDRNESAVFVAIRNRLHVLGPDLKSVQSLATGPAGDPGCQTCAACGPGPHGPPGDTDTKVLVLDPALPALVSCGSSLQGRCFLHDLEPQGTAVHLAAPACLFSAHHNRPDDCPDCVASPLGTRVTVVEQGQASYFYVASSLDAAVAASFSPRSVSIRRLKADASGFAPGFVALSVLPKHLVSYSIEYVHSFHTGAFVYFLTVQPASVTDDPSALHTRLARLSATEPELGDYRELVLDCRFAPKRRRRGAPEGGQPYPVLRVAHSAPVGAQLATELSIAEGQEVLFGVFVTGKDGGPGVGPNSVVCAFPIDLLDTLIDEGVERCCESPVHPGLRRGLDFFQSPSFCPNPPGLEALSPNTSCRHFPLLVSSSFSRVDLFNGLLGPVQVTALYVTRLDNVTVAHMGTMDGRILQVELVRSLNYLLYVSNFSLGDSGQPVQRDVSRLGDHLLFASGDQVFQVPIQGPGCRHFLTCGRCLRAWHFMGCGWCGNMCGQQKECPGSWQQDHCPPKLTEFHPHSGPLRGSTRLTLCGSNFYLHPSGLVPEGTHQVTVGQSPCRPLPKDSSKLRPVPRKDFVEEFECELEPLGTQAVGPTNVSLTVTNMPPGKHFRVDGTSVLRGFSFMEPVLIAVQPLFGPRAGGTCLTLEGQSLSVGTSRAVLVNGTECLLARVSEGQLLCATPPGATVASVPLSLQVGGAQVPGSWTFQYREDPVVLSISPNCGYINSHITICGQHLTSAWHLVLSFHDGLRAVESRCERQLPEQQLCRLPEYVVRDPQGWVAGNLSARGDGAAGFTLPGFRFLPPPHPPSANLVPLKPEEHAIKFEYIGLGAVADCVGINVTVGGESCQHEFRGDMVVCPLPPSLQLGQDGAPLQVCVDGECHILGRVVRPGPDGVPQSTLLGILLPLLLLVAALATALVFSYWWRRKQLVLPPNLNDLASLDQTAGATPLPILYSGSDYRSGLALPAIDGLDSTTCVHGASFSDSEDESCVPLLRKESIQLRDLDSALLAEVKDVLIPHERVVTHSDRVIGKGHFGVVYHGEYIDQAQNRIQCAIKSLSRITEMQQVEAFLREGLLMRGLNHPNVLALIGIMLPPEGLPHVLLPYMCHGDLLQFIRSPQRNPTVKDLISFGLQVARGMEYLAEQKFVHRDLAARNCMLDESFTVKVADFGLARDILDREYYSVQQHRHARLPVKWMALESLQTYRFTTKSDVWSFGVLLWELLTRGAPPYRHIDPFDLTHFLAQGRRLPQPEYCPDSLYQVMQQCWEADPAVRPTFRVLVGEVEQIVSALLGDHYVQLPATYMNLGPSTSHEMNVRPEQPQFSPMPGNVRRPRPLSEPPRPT

IC50 (RON (human))	IC50 (MET (human))	SMILES
100 to 1000 nM	100 to 1000 nM	Nc1ncc(-c2cnn(C3CCNCC3)c2)cc1-c1cc2c(O)cccc2cn1 [Example 27, 3-[2-Amino-5-(1-piperidin-4-yl-1H-pyrazol-4-yl)-pyridin-3-yl]-isoquinolin-5-ol tri-hydrochloride salt]
1000 to 20000 nM	100 to 1000 nM	Nc1ncc(-c2cnn(C3CCNCC3)c2)cc1-c1cc2cc(O)ccc2cn1 [Example 28, 3-[2-Amino-5-(1-piperidin-4-yl-1H-pyrazol-4-yl)-pyridin-3-yl]-isoquinolin-6-ol trihydrochloride salt]
100 to 1000 nM	100 to 1000 nM	Nc1ncc(-c2cnn(C3CCNCC3)c2)cc1-c1cc2ccc(O)cc2cn1 [Example 29, 3-[2-Amino-5-(1-piperidin-4-yl-1H-pyrazol-4-yl)-pyridin-3-yl]-isoquinolin-7-ol]
1000 to 20000 nM	100 to 1000 nM	COc1nc(-c2cc(-c3cnn(C4CCNCC4)c3)cnc2N)cc2ccccc12 [Example 30, 3-(1-Methoxyisoquinolin-3-yl)-5-(1-piperidin-4-yl-1H-pyrazol-4-yl)-pyridin-2-ylamine trihydrochloride salt]
1000 to 20000 nM	1000 to 20000 nM	N#Cc1ccc2cnc(-c3cc(-c4cnn(C5CCNCC5)c4)cnc3N)cc2c1 [Example 31, 3-[2-Amino-5-(1-piperidin-4-yl-1H-pyrazol-4-yl)-pyridin-3-yl]-isoquinoline-6-carbonitrile trihydrochloride salt]
100 to 1000 nM	100 to 1000 nM	N#Cc1ccc2cc(-c3cc(-c4cnn(C5CCNCC5)c4)cnc3N)ncc2c1 [Example 32, 3-[2-Amino-5-(1-piperidin-4-yl-1H-pyrazol-4-yl)-pyridin-3-yl]-isoquinoline-7-carbonitrile trihydrochloride salt]
100 to 1000 nM	100 to 1000 nM	N#Cc1cccc2cnc(-c3cc(-c4cnn(C5CCNCC5)c4)cnc3N)cc12 [Example 33, 3-[2-Amino-5-(1-piperidin-4-yl-1H-pyrazol-4-yl)-pyridin-3-yl]-isoquinoline-5-carbonitrile trihydrochloride salt]
1000 to 20000 nM	100 to 1000 nM	Nc1ncc(-c2cnn(C3CCNCC3)c2)cc1-c1cc2ccc(F)cc2cn1 [Example 34, 3-(7-Fluoroisoquinolin-3-yl)-5-(1-piperidin-4-yl-1H-pyrazol-4-yl)-pyridin-2-ylamine]
1000 to 20000 nM	1000 to 20000 nM	Nc1ncc(-c2cnn(C3CCNCC3)c2)cc1-c1cc2cc(F)ccc2cn1 [Example 35, 3-(6-Fluoroisoquinolin-3-yl)-5-(1-piperidin-4-yl-1H-pyrazol-4-yl)-pyridin-2-ylamine]
100 to 1000 nM	100 to 1000 nM	N#Cc1cccc2cc(-c3cc(-c4cnn(C5CCNCC5)c4)cnc3N)ncc12 [Example 36, 3-[2-Amino-5-(1-piperidin-4-yl-1H-pyrazol-4-yl)-pyridin-3-yl]-isoquinoline-8-carbonitrile trihydrochloride salt]
100 to 1000 nM	100 to 1000 nM	N#Cc1ccc(F)c2cnc(-c3cc(-c4cnn(C5CCNCC5)c4)cnc3N)cc12 [Example 37, 3-[2-Amino-5-(1-piperidin-4-yl-1H-pyrazol-4-yl)-pyridin-3-yl]-8-fluoro-isoquinoline-5-carbonitrile trihydrochloride]
100 to 1000 nM	≤ 100 nM	Nc1ncc(-c2cnn(C3CCNCC3)c2)cc1-c1cc2ccc(F)c(Cl)c2cn1 [Example 38, 3-(8-Chloro-7-fluoroisoquinolin-3-yl)-5-(1-piperidin-4-yl-1H-pyrazol-4-yl)-pyridin-2-ylamine trihydrochloride salt]
100 to 1000 nM	≤ 100 nM	Nc1ncc(-c2cnn(C3CCNCC3)c2)cc1-c1cc2cccc(F)c2cn1 [Example 39, 3-(8-Fluoroisoquinolin-3-yl)-5-(1-piperidin-4-yl-1H-pyrazol-4-yl)-pyridin-2-ylamine]
100 to 1000 nM	100 to 1000 nM	Nc1ncc(-c2cnn(C3CCNCC3)c2)cc1-c1cc2cc(Cl)ccc2cn1 [Example 40, 3-(6-Chloroisoquinolin-3-yl)-5-(1-piperidin-4-yl-1H-pyrazol-4-yl)-pyridin-2-ylamine trihydrochloride]
1000 to 20000 nM	100 to 1000 nM	Nc1ncc(-c2cnn(C3CCNCC3)c2)cc1-c1cc2ccc(Cl)cc2cn1 [Example 41, 3-(7-Chloroisoquinolin-3-yl)-5-(1-piperidin-4-yl-1H-pyrazol-4-yl)-pyridin-2-ylamine trihydrochloride]
100 to 1000 nM	100 to 1000 nM	Nc1ncc(-c2cnn(C3CCNCC3)c2)cc1-c1cc2c(Cl)cccc2cn1 [Example 42, 3-(5-Chloroisoquinolin-3-yl)-5-(1-piperidin-4-yl-1H-pyrazol-4-yl)-pyridin-2-ylamine trihydrochloride]
100 to 1000 nM	100 to 1000 nM	Nc1ncc(-c2cnn(C3CCNCC3)c2)cc1-c1cc2cc(Cl)cc(Cl)c2cn1 [Example 43, 3-(6,8-Dichloroisoquinolin-3-yl)-5-(1-piperidin-4-yl-1H-pyrazol-4-yl)-pyridin-2-ylamine trihydrochloride]
1000 to 20000 nM	1000 to 20000 nM	COc1ccc2cc(-c3cc(-c4cnn(C5CCNCC5)c4)cnc3N)ncc2c1 [Example 44, 3-(7-Methoxyisoquinolin-3-yl)-5-(1-piperidin-4-yl-1H-pyrazol-4-yl)-pyridin-2-ylamine trihydrochloride]
1000 to 20000 nM	100 to 1000 nM	COc1ccc2cnc(-c3cc(-c4cnn(C5CCNCC5)c4)cnc3N)cc2c1 [Example 45, 3-(6-Methoxyisoquinolin-3-yl)-5-(1-piperidin-4-yl-1H-pyrazol-4-yl)-pyridin-2-ylamine trihydrochloride]
1000 to 20000 nM	100 to 1000 nM	Nc1ncc(-c2cnn(C3CCNCC3)c2)cc1-c1cc2cc(F)cc(F)c2cn1 [Example 46, 3-(6,8-Difluoroisoquinolin-3-yl)-5-(1-piperidin-4-yl-1H-pyrazol-4-yl)-pyridin-2-ylamine trihydrochloride salt]
100 to 1000 nM	100 to 1000 nM	Nc1ncc(-c2cnn(C3CCNCC3)c2)cc1-c1cc2cc(F)cc(Cl)c2cn1 [Example 47, 3-(8-Chloro-6-fluoroisoquinolin-3-yl)-5-(1-piperidin-4-yl-1H-pyrazol-4-yl)-pyridin-2-ylamine trihydrochloride salt]
100 to 1000 nM	100 to 1000 nM	Nc1ncc(-c2cnn(C3CCNCC3)c2)cc1-c1cc2c(-c3ccco3)ccc(F)c2cn1 [Example 48, 3-(8-Fluoro-5-furan-2-ylisoquinolin-3-yl)-5-(1-piperidin-4-yl-1H-pyrazol-4-yl)-pyridin-2-ylamine]
100 to 1000 nM	≤ 100 nM	Nc1ncc(-c2cnn(C3CCNCC3)c2)cc1-c1cc2c(-c3ccoc3)ccc(F)c2cn1 [Example 49, 3-(8-Fluoro-5-furan-3-ylisoquinolin-3-yl)-5-(1-piperidin-4-yl-1H-pyrazol-4-yl)-pyridin-2-ylamine trihydrochloride]
100 to 1000 nM	100 to 1000 nM	Nc1ncc(-c2cnn(C3CCNCC3)c2)cc1-c1cc2c(-c3ccccc3)ccc(F)c2cn1 [Example 50, 3-(8-Fluoro-5-phenylisoquinolin-3-yl)-5-(1-piperidin-4-yl-1H-pyrazol-4-yl)-pyridin-2-ylamine]
≤ 100 nM	≤ 100 nM	Nc1ncc(-c2cnn(C3CCNCC3)c2)cc1-c1cc2c(-c3cn[nH]c3)ccc(F)c2cn1 [Example 51, 3-[8-Fluoro-5-(1H-pyrazol-4-yl)-isoquinolin-3-yl]-5-(1-piperidin-4-yl-1H-pyrazol-4-yl)-pyridin-2-ylamine trihydrochloride]
≤ 100 nM	≤ 100 nM	Cn1cc(-c2ccc(F)c3cnc(-c4cc(-c5cnn(C6CCNCC6)c5)cnc4N)cc23)cn1 [Example 52, 3-[8-Fluoro-5-(1-methyl-1H-pyrazol-4-yl)-isoquinolin-3-yl]-5-(1-piperidin-4-yl-1H-pyrazol-4-yl)-pyridin-2-ylamine trihydrochloride]
100 to 1000 nM	100 to 1000 nM	Nc1ncc(-c2cnn(C3CCNCC3)c2)cc1-c1cc2c(-c3ccc[nH]3)ccc(F)c2cn1 [Example 53, 3-[8-Fluoro-5-(1H-pyrrol-2-yl)-isoquinolin-3-yl]-5-(1-piperidin-4-yl-1H-pyrazol-4-yl)-pyridin-2-ylamine]
